Data published in patent US6809106B1, “Quinoline derivatives as inhibitors of MEK enzymes” (AstraZeneca AB, priority 1999, dated 2004).

How the values were obtained:
[1] = tested on: HT29 human colon tumour cells; assay: Cell proliferation assays; type: cell-based; details: 72 hours incubation
Procedure: Cell Proliferation Assays
Cells were seeded into multi-well plates at 20 000-40 000 cells/ml in growth medium containing 5% FCS and incubated overnight at 37° C. The compounds were prepared in fresh medium at an appropriate concentration and added to the wells containing the cells. These were then incubated for a further 72 hours. Cells were then either removed from the wells by incubating with trypsin/EDTA and counted using a Coulter counter, or treated with KIT/PMS in PBSA and optical densities read at […].

human p45MEK1 (GST-MEK) = human p45MEK1 (GST-MEK) (Homo sapiens, UniProt Q02750); assay: Assay for inhibitors of the MAP kinase pathway (coupled GST-MEK/GST-MAPK/MBP 33P assay); type: biochemical; details: GST-MEK activated by c-raf, MBP substrate, 8.33 μM ATP
Procedure: Assay for Inhibitors of the MAP Kinase Pathway
To evaluate inhibitors of the MAPK pathway a coupled assay was carried out which measures phosphorylation of serine/threonine residues present in the substrate in the presence or absence of inhibitor. Recombinant glutathione S-transferase fusion protein containing human p45MEK1 (GST-MEK) was activated by c-raf (Sf9 insect cell lysate from triple baculoviral infection with c-raf/ras/lck) and used for the assay. Active GST-MEK was first used to activate a recombinant glutathione S-transferase fusion protein containing p44MAP kinase (GST-MAPK) in the presence of ATP and Mg^2+ for 60min at room temperature in the presence or absence of potential inhibitors. The activated GST-MAPK was then incubated with myelin basic protein (MBP) as substrate for 10 min at room temperature in the presence of ATP, Mg^2+ and ^33P-ATP. The reaction was stopped by addition of 20% v/v phosphoric acid. Incorporation of ^33P into the myelin basic protein was determined by capture of the substrate on a filter mat, washing and counting using scintillation methods. The extent of inhibition was determined by comparison with untreated controls.
The final assay solution contained 10 mM Tris, pH 7.5, 0.05 mM EGTA, 8.33 μM [γ^33P]ATP, 8.33 mM Mg(OAc)2, 0.5 mM sodium orthovanadate, 0.05% w/v BSA, 6.5 ng GST-MEK, 1 μg GST-MAPK and 16.5 μg MBP in a reaction volume of […].

human p45MEK1 (GST-MEK), sequence (Q02750 whole entry): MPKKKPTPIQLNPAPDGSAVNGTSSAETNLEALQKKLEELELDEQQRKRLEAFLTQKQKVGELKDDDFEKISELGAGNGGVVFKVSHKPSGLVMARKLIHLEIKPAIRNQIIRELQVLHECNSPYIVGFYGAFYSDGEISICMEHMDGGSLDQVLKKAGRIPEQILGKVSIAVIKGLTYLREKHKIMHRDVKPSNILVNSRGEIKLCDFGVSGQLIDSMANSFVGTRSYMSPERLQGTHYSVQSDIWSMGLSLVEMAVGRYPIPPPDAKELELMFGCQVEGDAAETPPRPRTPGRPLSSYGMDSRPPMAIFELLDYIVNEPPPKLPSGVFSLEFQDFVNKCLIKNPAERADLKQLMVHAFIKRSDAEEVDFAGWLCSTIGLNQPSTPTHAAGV

Row | Structure (SMILES) | IC50 [1] [µM] | IC50 (human p45MEK1 (GST-MEK)) [nM]
1 | COc1cc2ncc(Cl)c(Nc3ccc(Oc4ccccc4OC)cc3)c2cc1OC [Compound 1, 4-(2-methoxyphenoxy)-anilino-3-chloro-6,7-dimethoxyquinoline] | 3.4 | 
2 | COc1cc2ncc(Cl)c(Nc3ccc(Cl)c(Cl)c3)c2cc1OC [Compound 5] |  | 1530
